# Activity calls are given as the source filed them. The rule behind the calls is not given here.
# Columns and labels:
# CCRF-CEM [1] = assay: Induction of apoptosis in human CCRF-CEM cells assessed as viable cells at 1 times IC50 concentration incubated for 24 hrs by annexin V FITC/propidium iodide staining based flow cytometry (reference value: 96 %); format: functional
# CCRF-CEM [2] = assay: Induction of cell cycle arrest in human CCRF-CEM cells assessed as accumulation of cells at G1 phase at 1 times IC50 concentration incubated for 24 to 72 hrs by propidium iodide staining based flow cytometry; format: functional; conditions: time 24-72 hrs
# [3] = Apparent permeability across apical to basolateral side in dog MDCK-MDR1 cells incubated for 1 hr by high-throughput spectrometric analysis; format: ADME, cell-based, Canis lupus familiaris
# [4] = Chemical stability of the compound in PBS buffer assessed as compound remaining at pH 7.4 at 2 uM measured after 60 mins by RF-MS analysis; format: physicochemical; conditions: read-out: Stability
# HCT-116 = assay: Cytotoxicity against human HCT-116 cells assessed as inhibition of cell growth incubated for 72 hrs by MTS assay; format: functional, cell-based; conditions: HCT-116, 72 h
# [5] = Chemical stability of the compound in PBS buffer assessed as compound remaining at pH 7.4 at 2 uM measured after 15 mins by RF-MS analysis; format: physicochemical; conditions: read-out: Stability
# [6] = Microsomal stability in human liver microsome as compound remaining at 2 uM measured after 60 mins in presence of NADPH by RF-MS analysis; format: ADME; conditions: liver microsomes, read-out: Stability
# [7] = Plasma stability in human assessed as compound remaining at 2 uM measured after 15 mins by RF-MS analysis; format: ADME, cell-free; conditions: read-out: Stability
# [8] = Chemical stability of the compound in PBS buffer assessed as compound remaining at pH 7.4 at 2 uM measured after 30 mins by RF-MS analysis; format: physicochemical; conditions: read-out: Stability
# [9] = Plasma stability in human assessed as compound remaining at 2 uM measured after 30 mins by RF-MS analysis; format: ADME, cell-free; conditions: read-out: Stability
# [10] = Apparent permeability across apical to basolateral side in dog MDCK-MDR1 cells assessed as drug recovery incubated for 1 hr by high-throughput spectrometric analysis; format: ADME, cell-based, Canis lupus familiaris; conditions: read-out: Drug recovery
# CCRF-CEM [11] = assay: Induction of apoptosis in human CCRF-CEM cells assessed as late apoptotic cells at 1 times IC50 concentration incubated for 24 hrs by annexin V FITC/propidium iodide staining based flow cytometry (reference value: 1.4 %); format: functional
# [12] = Microsomal stability in human liver microsome as compound remaining at 2 uM measured after 30 mins in presence of NADPH by RF-MS analysis; format: ADME; conditions: liver microsomes, read-out: Stability
# CCRF-CEM [13] = assay: Induction of apoptosis in human CCRF-CEM cells assessed as late apoptotic cells at 5 times IC50 concentration incubated for 24 hrs by annexin V FITC/propidium iodide staining based flow cytometry (reference value: 1.4 %); format: functional
# [14] = Microsomal stability in human liver microsome as compound remaining at 2 uM measured after 15 mins in presence of NADPH by RF-MS analysis; format: ADME; conditions: liver microsomes, read-out: Stability
# A549 = assay: Cytotoxicity against human A549 cells assessed as inhibition of cell growth incubated for 72 hrs by MTS assay; format: functional, cell-based; conditions: A549, 72 h
# [15] = Plasma stability in human assessed as compound remaining at 2 uM measured after 120 mins by RF-MS analysis; format: ADME, cell-free; conditions: read-out: Stability
# CCRF-CEM [16] = assay: Induction of cell cycle arrest in human CCRF-CEM cells assessed as accumulation of cells at G1 phase at 5 times IC50 concentration incubated for 24 to 72 hrs by propidium iodide staining based flow cytometry; format: functional; conditions: time 24-72 hrs
# CCRF-CEM [17] = assay: Induction of apoptosis in human CCRF-CEM cells assessed as effect on total Rb protein level at 5 times IC50 concentration incubated for 24 hrs by western blot assay; format: functional, cell-based
# CCRF-CEM [18] = assay: Induction of apoptosis in human CCRF-CEM cells assessed as early apoptotic cells at 1 times IC50 concentration incubated for 24 hrs by annexin V FITC/propidium iodide staining based flow cytometry (reference value: 2.6 %); format: functional
# [19] = Plasma protein binding in human assessed as fraction bound at 10 uM incubated for 4 hrs by rapid equilibrium dialysis based RF-MS analysis; format: ADME, cell-free; conditions: read-out: PPB (converted)
# [20] = Efflux ratio of apparent permeability from basolateral to apical side over apical to basolateral side in human Caco-2 cells incubated for 2 hr by high-throughput spectrometric analysis; format: ADME, cell-based
# CEM-DNR = assay: Cytotoxicity against human CEM-DNR cells assessed as inhibition of cell growth incubated for 72 hrs by MTS assay; format: functional, cell-based
# [21] = Cytotoxicity against human MRC5 cells assessed as inhibition of cell growth incubated for 72 hrs by MTS assay; format: toxicity, cell-based
# [22] = Cytotoxicity against human K562-Tax cells assessed as inhibition of cell growth incubated for 72 hrs by MTS assay; format: functional, cell-based
# CCRF-CEM [23] = assay: Induction of cell cycle arrest in human CCRF-CEM cells assessed as decrease of cell population at S phase at 1 times IC50 concentration incubated for 24 to 72 hrs by propidium iodide staining based flow cytometry; format: functional; conditions: time 24-72 hrs
# [24] = Cytotoxicity against human BJ cells assessed as inhibition of cell growth incubated for 72 hrs by MTS assay; format: toxicity, cell-based
# [25] = Chemical stability of the compound in PBS buffer assessed as compound remaining at pH 7.4 at 2 uM measured after 120 mins by RF-MS analysis; format: physicochemical; conditions: read-out: Stability
# CCRF-CEM [26] = assay: Induction of cell cycle arrest in human CCRF-CEM cells assessed as decrease of cell population at S phase at 5 times IC50 concentration incubated for 24 to 72 hrs by propidium iodide staining based flow cytometry; format: functional; conditions: time 24-72 hrs
# [27] = Apparent permeability across apical to basolateral side in human Caco-2 cells assessed as drug recovery incubated for 2 hr by high-throughput spectrometric analysis; format: ADME, cell-based; conditions: read-out: Drug recovery
# [28] = Efflux ratio of apparent permeability from basolateral to apical side over apical to basolateral side in dog MDCK-MDR1 cells incubated for 1 hr by high-throughput spectrometric analysis; format: ADME, cell-based, Canis lupus familiaris
# U2OS = assay: Cytotoxicity against human U2OS cells assessed as inhibition of cell growth incubated for 72 hrs by MTS assay; format: functional, cell-based
# CCRF-CEM [29] = assay: Induction of apoptosis in human CCRF-CEM cells assessed as early apoptotic cells at 5 times IC50 concentration incubated for 24 hrs by annexin V FITC/propidium iodide staining based flow cytometry (reference value: 2.6 %); format: functional
# CCRF-CEM [30] = assay: Induction of apoptosis in human CCRF-CEM cells assessed as viable cells at 5 times IC50 concentration incubated for 24 hrs by annexin V FITC/propidium iodide staining based flow cytometry (reference value: 96 %); format: functional
# K562 = assay: Cytotoxicity against human K562 cells assessed as inhibition of cell growth incubated for 72 hrs by MTS assay; format: functional, cell-based; conditions: K562, 72 h
# [31] = Apparent permeability across apical to basolateral side in human Caco-2 cells incubated for 2 hr by high-throughput spectrometric analysis; format: ADME, cell-based
# CCRF-CEM [32] = assay: Induction of apoptosis in human CCRF-CEM cells assessed as decrease in cell number at 5 times IC50 concentration incubated for 24 to 74 hrs by annexin V FITC/propidium iodide staining based flow cytometry; format: functional; conditions: time 24-74 hrs
# CCRF-CEM [33] = assay: Induction of apoptosis in human CCRF-CEM cells assessed as decrease in cell number at 1 times IC50 concentration incubated for 24 to 74 hrs by annexin V FITC/propidium iodide staining based flow cytometry; format: functional; conditions: time 24-74 hrs
# [34] = Cytotoxicity against human p53HCT116 cells assessed as inhibition of cell growth incubated for 72 hrs by MTS assay; format: functional, cell-based; conditions: p53HCT116, 72 h
# CCRF-CEM [35] = assay: Induction of apoptosis in human CCRF-CEM cells assessed as effect on total Rb protein level at 1 times IC50 concentration incubated for 24 hrs by western blot assay; format: functional, cell-based
# CCRF-CEM [36] = assay: Cytotoxicity against human CCRF-CEM cells assessed as inhibition of cell growth incubated for 72 hrs by MTS assay; format: functional, cell-based
# [37] = Plasma stability in human assessed as compound remaining at 2 uM measured after 60 mins by RF-MS analysis; format: ADME, cell-free; conditions: read-out: Stability
# CCRF-CEM [38] = assay: Induction of apoptosis in human CCRF-CEM cells assessed as decrease in Rb phosphorylation level at Ser780 at 5 times IC50 concentration incubated for 24 hrs by western blot assay; format: functional, cell-based
# CCRF-CEM [39] = assay: Induction of apoptosis in human CCRF-CEM cells assessed as decrease in cyclin A protein expression level at 5 times IC50 concentration incubated for 24 hrs by western blot assay; format: functional, cell-based
# CCRF-CEM [40] = assay: Induction of apoptosis in human CCRF-CEM cells assessed as decrease in Rb phosphorylation level at Ser807/811 at 5 times IC50 concentration incubated for 24 hrs by western blot assay; format: functional, cell-based
# CCRF-CEM [41] = assay: Induction of apoptosis in human CCRF-CEM cells assessed as decrease in Bcl-2 protein expression level at 5 times IC50 concentration incubated for 24 hrs by western blot assay; format: functional, cell-based
compound,measurement,setting,value
C=C(C)[C@@H]1CC[C@]2(C(=O)O)CC[C@]3(C)[C@H](CC[C@@H]4[C@@]5(C)CC=C(c6ccc(O)cc6)C(C)(C)[C@@H]5CC[C@]43C)[C@@H]12,Activity,CCRF-CEM [1],95%
same,Activity,CCRF-CEM [2],Active
same,Papp A→B at 1 h,[3],4.27 ×10⁻⁶ cm/s
same,"remaining at 1 h, 2 µM",[4],94%
same,IC50,HCT-116,7.4 µM
same,"remaining at 0.25 h, 2 µM",[5],98.9%
same,"remaining at 1 h, 2 µM",[6],92.9%
same,"remaining at 0.25 h, 2 µM",[7],93.9%
same,"remaining at 0.5 h, 2 µM",[8],98.7%
same,"remaining at 0.5 h, 2 µM",[9],88.1%
same,recovery at 1 h,[10],55.9%
same,Activity,CCRF-CEM [11],1.6%
same,"remaining at 0.5 h, 2 µM",[12],93.2%
same,Activity,CCRF-CEM [13],1.9%
same,"remaining at 0.25 h, 2 µM",[14],96.7%
same,IC50,A549,6.2 µM
same,"remaining at 2 h, 2 µM",[15],74.4%
same,Activity,CCRF-CEM [16],Active
same,Activity,CCRF-CEM [17],inactive
same,Activity,CCRF-CEM [18],3.4%
same,"fraction unbound at 4 h, 10 µM",[19],0.242
same,efflux ratio at 2 h,[20],1.47
same,IC50,CEM-DNR,3.3 µM
same,IC50 at 72 h,[21],27 µM
same,IC50,[22],3.3 µM
same,Activity,CCRF-CEM [23],Active
same,IC50 at 72 h,[24],31 µM
same,"remaining at 2 h, 2 µM",[25],89.6%
same,Activity,CCRF-CEM [26],Active
same,recovery at 2 h,[27],65.2%
same,efflux ratio at 1 h,[28],2.05
same,IC50,U2OS,11 µM
same,Activity,CCRF-CEM [29],3.9%
same,Activity,CCRF-CEM [30],94.2%
same,IC50,K562,6.2 µM
same,Papp A→B at 2 h,[31],1.69 ×10⁻⁶ cm/s
same,Activity,CCRF-CEM [32],Active
same,Activity,CCRF-CEM [33],Active
same,IC50,[34],6.4 µM
same,Activity,CCRF-CEM [35],inactive
same,IC50,CCRF-CEM [36],0.69 µM
same,"remaining at 1 h, 2 µM",[37],86.8%
C=C(C)[C@@H]1CC[C@]2(C(=O)O)CC[C@]3(C)[C@H](CC[C@@H]4[C@@]5(C)CC=C(c6cccc(N)c6)C(C)(C)[C@@H]5CC[C@]43C)[C@@H]12,Activity,CCRF-CEM [1],95.2%
same,Activity,CCRF-CEM [2],Active
same,Papp A→B at 1 h,[3],1.73 ×10⁻⁶ cm/s
same,"remaining at 1 h, 2 µM",[4],91.8%
same,Activity,CCRF-CEM [38],Active
same,IC50,HCT-116,12 µM
same,"remaining at 0.25 h, 2 µM",[5],95.5%
same,"remaining at 1 h, 2 µM",[6],94.8%
same,"remaining at 0.25 h, 2 µM",[7],97.7%
same,"remaining at 0.5 h, 2 µM",[8],91.7%
same,"remaining at 0.5 h, 2 µM",[9],88.7%
same,recovery at 1 h,[10],31.5%
same,Activity,CCRF-CEM [11],1.5%
same,"remaining at 0.5 h, 2 µM",[12],107%
same,Activity,CCRF-CEM [13],1.8%
same,"remaining at 0.25 h, 2 µM",[14],108%
same,IC50,A549,9.7 µM
same,"remaining at 2 h, 2 µM",[15],71.5%
same,Activity,CCRF-CEM [16],Active
same,Activity,CCRF-CEM [17],inactive
same,Activity,CCRF-CEM [18],3.3%
same,"fraction unbound at 4 h, 10 µM",[19],0.502
same,efflux ratio at 2 h,[20],3.92
same,IC50,CEM-DNR,8.9 µM
same,Activity,CCRF-CEM [39],Active
same,IC50 at 72 h,[21],47 µM
same,IC50,[22],9 µM
same,Activity,CCRF-CEM [23],Active
same,IC50 at 72 h,[24],50 µM
same,"remaining at 2 h, 2 µM",[25],96.7%
same,Activity,CCRF-CEM [26],Active
same,recovery at 2 h,[27],106%
same,efflux ratio at 1 h,[28],7.23
same,IC50,U2OS,31 µM
same,Activity,CCRF-CEM [29],3.4%
same,Activity,CCRF-CEM [30],94.8%
same,IC50,K562,36 µM
same,Papp A→B at 2 h,[31],0.053 ×10⁻⁶ cm/s
same,Activity,CCRF-CEM [32],Active
same,Activity,CCRF-CEM [33],Active
same,IC50,[34],10 µM
same,Activity,CCRF-CEM [35],inactive
same,Activity,CCRF-CEM [40],Active
same,IC50,CCRF-CEM [36],1.8 µM
same,Activity,CCRF-CEM [41],Active
same,"remaining at 1 h, 2 µM",[37],82.5%

# Source: ChEMBL document CHEMBL5247620, “Lupane derivatives containing various aryl substituents in the position 3 have selective cytostatic effect in leukemic cancer cells including resistant phenotypes” (Eur J Med Chem, 2022)
